Measured values from patent US5565484A, “Benzenesulphonylindole derivatives for the preparation of medicines” (Sanofi, priority 1993, dated 1996).
pIC50: −log10 of the molar value. Read-outs that look alike come from different tables or passages of the source.

Legend:
[1] = test system: Ca^++ surcharge in arterial regions (femoral, mesenteric, aortic etc.); test: Inhibition of the Ca++ surcharge after treatment with vitamin D3 in rats; type: in vivo, rat; conditions: administered twice daily; for minimal effective dose: Rattus norvegicus, 72 h, oral, 3 days
Experimental: 1) Inhibition of the Ca^++ surcharge after treatment with vitamin D3 in rats
A test was performed on rats, to which 300,000 IU/kg of vitamin D3 were administered intramuscularly, followed by oral administration of a daily dose of the compound to be studied. The oral treatment using the compound to be tested was continued for 3 days, the animals were sacrificed and the Ca^++ was then assayed in various arterial regions (femoral, mesenteric, aortic etc.).

[2] = test system: human aortic smooth muscle cells; test: in vitro inhibition of proliferation of human aortic smooth muscle cells; type: cell-based; conditions: read-out: IC50 (inhibition of cell proliferation)
Experimental: "in vitro" tests were carried out using human aortic smooth muscle cells at rest (10^3 cells per test).
These cells were incubated in the presence of minimum eagle medium to which 5% of an agent inducing a cell proliferation was added. These tests were performed with various increasing doses of the compound to be studied compared with controls.

[3] = test system: rabbit carotid arteries (myointimal proliferation); test: Inhibition of myointimal proliferation induced in rabbit carotid arteries after lesion of the endothelium; type: in vivo; conditions: oral, 16 days
Experimental: 2) Inhibition of myointimal proliferation induced in rabbit carotid arteries after lesion of the endothelium For this purpose, rabbits from which the endothelium of the carotid artery was removed were used. Two hours before the lesion, the compound to be studied was administered orally. The treatment was continued orally, daily for 16 days, and the surface areas of the intima and of the media were then determined by morphometric measurement.

[4] = test system: smooth muscle cells; test: Inhibition of the proliferation of smooth muscle cells (general statements); type: cell-based; conditions: qualitative statement
[5] = Solubility tests in water of SR 33805 salts; type: physicochemical; conditions: for solubility: (2) water of pH = 3.6
Experimental: (1) solubility in water at 25° C. after stirring for 72 hours
(2) solubility in water of pH = 3.6
(3) solubility after addition of the product to be tested to water at
70° C., stirring and continuation of stirring for 72 h at […]

[6] = Hygroscopicity and storage stability of SR 33805 salts; type: physicochemical
[7] = test system: cardiovascular system; test: Activity on the cardiovascular system
[8] = test system: calcium translocation; test: Inhibition of calcium translocation in vitro; type: biochemical
[9] = Homo sapiens, 72 h, inducing agent: foetal growth factor, 3 days incubation
[10] = Homo sapiens, Platelet, 72 h, inducing agent: platelet derived growth factor, 3 days incubation
[11] = (3) added to water at 70° C., then stirring 72 h at 25° C., read-out: solubility after addition of the product to be tested to water at 70° C., stirring and continuation of stirring for 72 h at 25° C.
[12] = water, (1) water, 25° C., stirring 72 hours, read-out: solubility in water at 25° C. after stirring for 72 hours

3-isopropyl-1-[4-{3-[N-methyl-N-(3,4-dimethoxyphenethyl)amino]propoxy}benzenesulphonyl]-indolizine [Fantofarone]
dose from which significant decrease in the total Ca content ([1]; artery not specified, same experimental conditions): 100 mg/kg
pIC50 ([2]; inducing agent: fetal calf serum, 3 days incubation): 5.26
pIC50 ([2]; inducing agent: foetal growth factor, 3 days incubation): 5.70
pIC50 ([2]; inducing agent: platelet derived growth factor, 3 days incubation): < 5.00
effect on myointimal hyperplasia ([3]; maximum dose 12 mg/kg): no significant effect
inhibition of the proliferation of smooth muscle cells [4]: devoid of such properties or have shown themselves to be endowed with these properties at high, or even subtoxic, doses

COc1ccc([C@@H]2Sc3ccccc3N(CCN(C)C)C(=O)[C@@H]2OC(C)=O)cc1 [Diltiazem]
effect on myointimal hyperplasia ([3]; maximum dose twice 6 mg/kg): no significant effect

COC(=O)C1=C(C)NC(C)=C(C(=O)OC)C1c1ccccc1[N+](=O)[O-] [Nifedipine]
pIC50 [2, 9]: 6.00
pIC50 [2, 10]: < 5.00
effect on myointimal hyperplasia ([3]; maximum dose 6 mg/kg or twice 6 mg/kg): no significant effect

COc1ccc(CCN(C)CCCOc2ccc(S(=O)(=O)c3c(C(C)C)c4ccccc4n3C)cc2)cc1OC.O=C(O)C(=O)O [SR 33805 A, 1-Methyl-3-isopropyl-2-[4-{3-[N-methyl-N-(3,4-dimethoxyphenethyl)amino]propoxy}benzenesulphonyl]indole hydrogen oxalate]
solubility [5]: 190 µg/mL
solubility thermodynamic at 72 h [5, 11]: 310 µg/mL
solubility thermodynamic at 72 h [5, 12]: 70 µg/mL

COc1ccc(CCN(C)CCCOc2ccc(S(=O)(=O)c3c(C(C)C)c4ccccc4n3C)cc2)cc1OC [SR 33805 B]
solubility [5]: 100 µg/mL
solubility thermodynamic at 72 h [5, 11]: 260 µg/mL
solubility thermodynamic at 72 h [5, 12]: 150 µg/mL

COc1ccc(CCN(C)CCCOc2ccc(S(=O)(=O)c3c(C(C)C)c4ccccc4n3C)cc2)cc1OC.CS(=O)(=O)O [SR 33805 C, 1-methyl-3-isopropyl-2-[4-{3-[N-methyl-N-(3,4-dimethoxyphenethyl)amino]propoxy}benzenesulphonyl]-indole methanesulphonate]
minimal effective dose ([1]; aorta, read-out: dose from which significant inhibition of the Ca++ surcharge in the aorta): 2 mg/kg
minimal effective dose ([1]; mesenteric artery, read-out: dose from which significant inhibition of the Ca++ surcharge in the mesenteric artery): 5 mg/kg
pIC50 ([2]; Homo sapiens, 72 h, inducing agent: fetal calf serum, 3 days incubation): 6.05
pIC50 [2, 9]: 6.22
pIC50 [2, 10]: 6.52
minimal effective dose ([3]; Oryctolagus cuniculus, 384 h, read-out: dose from which significant inhibition of myointimal proliferation): 1.5 mg/kg
inhibition of myointimal proliferation ([3]; from the dose of 1.5 mg/kg, significant): -58%
solubility [5]: 79900 µg/mL
solubility thermodynamic at 72 h [5, 11]: 98300 µg/mL
aqueous solubility ([5]; in words, contrary to the other salts of SR 33805): good aqueous solubility
solubility thermodynamic at 72 h [5, 12]: 67500 µg/mL
hygroscopicity [6]: no signs of hygroscopicity
stability under various storage conditions ([6]; various storage conditions): good stability

COc1ccc(CCN(C)CCCOc2ccc(S(=O)(=O)c3c(C(C)C)c4ccccc4n3C)cc2)cc1OC [SR 33805, 1-methyl-3-isopropyl-2-[4-{3-[N-methyl-N-(3,4-dimethoxyphenethyl)amino]propoxy}benzenesulphonyl]indole]
inhibition of the proliferation of smooth muscle cells [4]: most interesting inhibitory potentiality

CNCCCOc1ccc(S(=O)(=O)c2c(C(C)C)c3ccccc3n2C)cc1 [SR 34549, 1-methyl-3-isopropyl-2-{4-[3-(N-methylamino)propoxy]benzenesulfonyl} indole]
activity on the cardiovascular system [7]: very moderate or lack of activity
inhibition of the proliferation of smooth muscle cells [4]: strong activity
inhibition of the calcium translocation [8]: devoid of inhibitory properties

COc1ccc(CCN(C)CCCC(C#N)(c2ccc(OC)c(OC)c2)C(C)C)cc1OC (stereo not drawn) [Verapamil]
pIC50 ([2]; Homo sapiens, 72 h): 5.00
effect on myointimal hyperplasia ([3]; maximum dose twice 6 mg/kg): no significant effect
inhibition of the proliferation of smooth muscle cells [4]: devoid of such properties or have shown themselves to be endowed with these properties at high, or even subtoxic, doses
